# Results taken from patent US5032593A, “Method of treating bronchoconstriction with 1,3-unsymmetrical straight chain alkyl-substituted 8-phenylxanthines” (priority 1988, dated 1991).
# Where two headings read alike, the source gives them in different places.
# Assays:
# phosphodiesterase = settings: cited from earlier work
# A1 - Adenosine receptor = target: T1, A1 - Adenosine receptor (Rattus norvegicus, UniProt P25099); assay: Adenosine receptor binding, [3H]cyclohexyladenosine, rat cortical membranes; settings: [3H]CHA, 23° C., pH 7.4, read-out: A1 - Adenosine receptor binding, Ki ± s.e.m.
# T1 construct: rat cortical tissue was homogenized in ice cold 50 mM Tris HCl buffer; from tissue; host or cells: rat cerebral cortex membranes
# T1 sequence (P25099 1-326): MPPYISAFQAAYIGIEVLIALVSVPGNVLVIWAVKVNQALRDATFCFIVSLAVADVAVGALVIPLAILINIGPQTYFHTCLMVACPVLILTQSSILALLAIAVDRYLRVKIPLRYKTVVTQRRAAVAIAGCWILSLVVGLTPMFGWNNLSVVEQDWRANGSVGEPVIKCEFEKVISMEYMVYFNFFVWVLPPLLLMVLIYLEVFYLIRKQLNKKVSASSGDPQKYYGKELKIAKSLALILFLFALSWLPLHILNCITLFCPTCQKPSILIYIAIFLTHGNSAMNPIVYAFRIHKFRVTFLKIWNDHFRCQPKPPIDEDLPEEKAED
# Protocol: Briefly, rat cortical tissue was homogenized in ice cold 50 mM Tris HCl buffer (pH 7.4) using a Brinkman Polytron®. The homogenate was centrifuged at 48,000×g for 10 minutes and the resulting tissue pellet was suspended in fresh cold buffer to yield a tissue concentration of 10 mg (wet weight)/ml. […] Following this incubation, the tissue suspension was centrifuged as before and the resulting pellet was suspended in fresh buffer at a concentration of 7-10 mg tissue (wet weight)/ml. […] Dose-inhibition curves were generated with 10-12 concentrations of the test compound using triplicate incubations. The inhibition constants (Ki values) were calculated using EBDA, a log-logit iterative curve fitting program [McPhearson, Comput. Prog.
# [1] = test system: histamine-induced bronchoconstriction; assay: Reversal of histamine-induced bronchoconstriction in anesthetized guinea pigs; format: in vivo, guinea pig; settings: for ED50: Cavia porcellus, iv, read-out: Reversal of histamine-induced bronchoconstriction, guinea pigs, ED50 ± s.e.m. (N); for Reversal of histamine-induced bronchoconstriction, maximum effect, % (N) ± s.e.m.: maximum percent reversal, at highest dose
# Protocol: Adult male guinea pigs, weighing […], were anesthetized with an intraperitoneal injection of urethane (1.5 gm/kg). After a midline neck incision, the carotid artery and jugular vein were cannulated using polyethylene tubing. The trachea was cannulated using a 15 gauge Leuer Stub. Animals were ventilated at a constant rate and volume (55 breaths per minute and 1 ml per […] body weight) using a Harvard Apparatus small animal respirator. Airway pressure was measured from a side port of the tracheal cannula, using a Statham pressure transducer. Airway pressure and blood pressure were recorded using a Gould physiograph. Body temperature was maintained with a Narco temperature control unit.
# Baseline airway and blood pressures were recorded for ten minutes. Aerosolized histamine (0.01%) was then delivered to the airways via a DeVilbiss® ultrasonic nebulizer, inserted in-line between the respirator and the animal. After the histamine-induced bronchoconstriction reached a plateau, as evidenced by an increased airway pressure, a dose-response curve was determined for each compound. […] The maximum effect of each compound was determined from the reversal of bronchoconstriction, as the percent decrease in the bronchoconstrictor response, after administration of the highest dose of that compound.
# The ED50 values and maximum effect (%) were calculated using SAS and PROBIT computer analysis. […] The maximum effect is the maximum percent reversal of histamine-induced bronchoconstriction produced by the test compound.
# A2 - Adenosine receptor = target: T2, A2 - Adenosine receptor (Rattus norvegicus, UniProt P30543); assay: Adenosine receptor binding, [3H]NECA, rat striatum homogenate; settings: read-out: A2 - Adenosine receptor binding, Ki ± s.e.m.
# T2 construct: rat striatum homogenate; from tissue; host or cells: rat striatum homogenate
# Protocol: A similar procedure utilizing rat striatum homogenate and [^3 H]NECA as ligand was employed to measure A2 -adenosine receptor binding.
# The inhibition constants (Ki values) were calculated using EBDA, a log-logit iterative curve fitting program [McPhearson, Comput. Prog.
# Acute toxicity in mice = format: in vivo, mouse; settings: for Acute Toxicity, Approximate lethal dose: i.p.'; for Acute Toxicity (comments): animals showing the side effect
# [2] = Solubility at the dose intended for the cardiovascular test; format: physicochemical; settings: dose for guinea pig i.v. cardiovascular test
# [3] = test system: antigen-induced bronchoconstriction; assay: Prevention of antigen-induced bronchoconstriction in ovalbumin-sensitized guinea pigs; format: in vivo, guinea pig; settings: 10 mg/kg, i.v., peak airway pressure increase as percent of vehicle animals
# Source text: Prevention of antigen-induced bronchoconstriction Male Hartley guinea pigs were given two intraperitoneal injections each containing 50 mcg ovalbumin in a 2:1 emulsion of Freund's complete adjuvant and sterile saline, for a total of 100 mcg ovalbumin per animal. At least three weeks post sensitization injection, sensitized guinea pigs (now approximately 400-600 g) were anesthetized with an intraperitoneal injection of urethane. The carotid artery, jugular vein and the trachea were cannulated. […] Airway pressure was measured and aortic blood pressure was monitored. Body temperature was maintained.
# Following a stabilization period of approximately ten minutes, drug in vehicle or vehicle alone was administered intravenously in a volume of 1 ml. All drugs were tested at a dose of 10 mg/kg. One minute post injection, ovalbumin (10 mg/ml) was aerosolized into the airway via a DeVilbiss® ultrasonic nebulizer for a thirty minute period. Peak airway pressure attained during this thirty minute period was measured.
# [4] = Emetic effects in ferrets; format: in vivo, ferret; settings: 100 mg/kg
# Protocol: Male ferrets, 12-15 weeks old, were fasted overnight prior to experimentation. Animals were given intraperitoneal injections of 100 mg/kg of compound or were dosed with vehicle for controls. Animals were then placed in cages with feed and water and observed for signs of emesis.
# [5] = Cardiovascular effects (heart rate, blood pressure) in anesthetized guinea pigs; format: in vivo, guinea pig
# Protocol: Aortic blood pressure was recorded from a pressure transducer and the signal was integrated to give a heart rate signal.
# Each animal received a single intravenous injection of one compound. […] A group of control animals received injections of vehicle only. Changes in heart rate and blood pressure from pre-injection baseline values produced by drugs or vehicle were compared.
# [6] = guinea pigs, i.v., dose required to reverse the histamine response by 50%
# [7] = guinea pigs, i.v., 2 × histamine-reversal ED50
# T2 sequence (P30543 whole entry): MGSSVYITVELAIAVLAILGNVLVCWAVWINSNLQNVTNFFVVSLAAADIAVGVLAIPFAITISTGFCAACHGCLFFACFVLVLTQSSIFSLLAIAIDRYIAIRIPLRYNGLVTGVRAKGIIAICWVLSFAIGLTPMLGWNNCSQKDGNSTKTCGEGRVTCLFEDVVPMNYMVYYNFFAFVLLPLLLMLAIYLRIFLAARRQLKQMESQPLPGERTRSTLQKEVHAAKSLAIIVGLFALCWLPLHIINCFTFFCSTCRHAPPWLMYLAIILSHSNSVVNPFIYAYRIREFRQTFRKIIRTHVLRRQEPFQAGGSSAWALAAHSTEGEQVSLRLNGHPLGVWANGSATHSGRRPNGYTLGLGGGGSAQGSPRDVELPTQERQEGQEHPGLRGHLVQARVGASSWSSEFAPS
Compound,inhibition of phosphodiesterase (phosphodiesterase),Ki (A1 - Adenosine receptor) [nM],"ED50 [1, 6] [mg/kg]","Reversal of histamine-induced bronchoconstriction, maximum effect, % (N) ± s.e.m. ([1]; guinea pigs, i.v.) [%]",Ki (A2 - Adenosine receptor) [nM],"Acute Toxicity, Approximate lethal dose (Acute toxicity in mice; N 3, route head 'p.o.) [mg/kg]",solubility at 2 × ED50 [2],"Prevention of antigen-induced bronchoconstriction, % control [3] [% control]","Emetic effects, episodes/responder ± s.e. ([4]; ferrets, i.p., 1 hour) [episodes/responder]","Emetic effects, no. responding / no. tested in 1 hour ([4]; ferrets, i.p., 1 hour)","% Basal blood pressure (mm Hg) [5, 7] [%]","% Basal heart rate (N) [5, 7] [%]",ED50 [1] [mg/kg],Acute Toxicity (comments) (Acute toxicity in mice),"Acute Toxicity, Approximate lethal dose (Acute toxicity in mice; second printed line of values, N 6, route head 'p.o.) [mg/kg]","Emetic effects, no. responding / no. tested in 1 hour ([4]; in vivo, ip)","% Basal blood pressure (mm Hg) ([5]; guinea pig, in vivo, iv) [%]","% Basal heart rate (N) ([5]; guinea pig, in vivo, iv) [%]"
"CC(C)Cn1c(=O)n(C)c(=O)c2[nH]cnc21 [IBMX, 3-isobutyl-1-methylxanthine]",potent inhibitors of phosphodiesterase,–,–,–,–,–,–,–,–,–,–,–,–,–,–,–,–,–
"CCCn1c(=O)c2[nH]c(-c3ccccc3)nc2n(CCC)c1=O [1,3-Dipropyl-8-phenylxanthine]",–,2.75 ± 0.29,> 50,33.8 ± 8.5,116 ± 100,> 250,insoluble,98.1 ± 12.4,–,–,–,–,–,–,–,–,–,–
Cn1c(=O)c2[nH]cnc2n(C)c1=O [Theophylline],–,–,–,72.8 ± 6.6,–,–,–,–,10.7 ± 3.7,7/8,66 ± 8,132 ± 4,35.1 ± 5.3,seizures 6/6,–,–,–,–
"CCCn1c(=O)n(C)c(=O)c2[nH]c(-c3ccccc3)nc21 [1-Methyl-3-propyl-8-phenylxanthine, 1-Methyl-3-n-propyl-8-phenylxanthine]",–,6.3 ± 0.17,16.9 ± 2,56.3 ± 3.2,93 ± 10.2,> 250,–,106.5 ± 9.7,–,–,86 ± 10,104 ± 4,–,–,–,–,–,–
"CCCn1c(=O)c2[nH]c(-c3ccccc3)nc2n(C)c1=O [3-Methyl-1-propyl-8-phenylxanthine, 3-Methyl-1-n-propyl-8-phenylxanthine]",–,–,2.1 ± 0.4,79.0 ± 3.4,553 ± 55.7,> 500,–,36.5 ± 2.0,2,2/8,134,100 ± 3,–,sedation 6/6,250 to 500,–,–,–
"Cn1c(=O)c2[nH]c(-c3ccccc3)nc2n(C)c1=O [1,3-Dimethyl-8-phenylxanthine]",–,–,–,22.0 ± 3.9,644 ± 144,< 250,–,71.7 ± 1.6,0,–,–,–,> 50,sedation 3/3,–,0/4,94 ± 22,102 ± 9
